The subject of test [1] is P388 leukemia. The test can be described thus: NCI tumour cell line growth inhibition, 48 h.
Test [2] relates to SN12K1 renal. Description: NCI tumour cell line growth inhibition, 48 h.

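Five compound concentrations were applied to cells in 96-well plates for 48 hours; endpoints were derived by simple linear interpolation of the resulting dose-response curve. Abbreviation: GI50, concentration required for 50% inhibition of growth. At the TGI there is no net growth.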

With `O=C(O)C1(C(=O)O)CCC1.[NH2-].[NH2-].[Pt+2]`, the GI50 was 15.4 µM in test [1] and 107 µM in test [2]. Besides, the TGI in test [1] was determined as 169 µM; in test [2], 185 µM.

(Values after PubChem BioAssay (NCI).)
